Test results: US10029996B2, “Class of cyano-substituted asymmetric cyanine dyes, synthesizing method and application thereof” (DALIAN UNIVERSITY OF TECHNOLOGY, priority 2013, dated 2018)

What was measured:
living cells = assay: MTT cytotoxicity assay in living cells; assay type: cell-based; conditions: 6 h, serial concentrations 0, 1, 3, 5 μM
Method: The Compounds C, D, E and reference compound M1 at serial concentrations (0, 1, 3, and 5 μM) were added to cells counted in a confocal microscope dish for 6 h. Then MTT tetrazolium solution (100 μL of 0.5 mg/ml in PBS) was added to each well, and the cells further incubated for 2 h. Excess MTT tetrazolium solution was then carefully removed and the colored formazan was dissolved in dimethyl sulfoxide (DMSO). The absorbance was measured at 490 nm using a microplate reader to measure the toxicity of compound.

CT DNA [1] = assay: Fluorescence quantum yield in the presence of DNA; assay type: physicochemical; conditions: 1 μM in Tris-HCl buffer, saturated DNA; Rhodamine B as standard; mean of triplicate
Method: A saturated amount of CT DNA was added into the 1 μM compound C solution in Tris-HCl buffer to keep a maximum absorbance less than 0.1 as determined by a UV-Vis Spectrophotometer. Fluorescence intensities are measured at selected excitation wavelengths of 545 nm, 550 nm and 555 nm, respectively. For each compound, the determination is made in triplicate, the fluorescence quantum yield of each determination is calculated, and the mean value is taken. Using Rhodamine B as the standard (ΦF=0.97, methanol, 15° C.), the calculated fluorescence quantum yields in buffer solution of compound C in the presence of DNA is 0.73. The equipments used are a UV-Vis spectrophotometer (Hp8453) and a spectrofluorophotometer (PTI-700).
A saturated amount of DNA was added into the 1 μM reference compound M1 solution in Tris-HCl buffer to keep a maximum absorbance less than 0.1 as determined by a UV-Vis Spectrophotometer. Fluorescence intensities are measured at selected excitation wavelengths of 585 nm, 590 nm and 595 nm, respectively. For each compound, the determination is made in triplicate, the fluorescence quantum yield of each determination is calculated, and the mean value is taken. Using Rhodamine B as the standard (ΦF=0.97, methanol, 15° C.), the calculated fluorescence quantum yields in buffer solution of reference compound M1 in the presence of DNA is 0.16. […]

CT DNA [2] = assay: Absorption and fluorescence emission spectra in the absence and presence of DNA in buffer; assay type: physicochemical; conditions: 2 μM in Tris-HCl buffer, absence and presence of saturated CT DNA; for maximum emission wavelength: excitation 550 nm
Method: 2 μM solutions of compounds C, D, and E in Tris-HCl (10 mM, pH=7.4, same below) buffer were be added into the cuvettes and determined its absorption respectively. The exited wavelength of the fluorescence spectra was 550 nm for all compounds. A saturated amount of CT DNA was added into the above solution, then the solution was determined its absorption respectively. The exited wavelength of the fluorescence spectra was 550 nm for all compounds. The equipments used are a UV-Vis spectrophotometer (Hp8453) and a spectrofluorophotometer (PTI-700). FIGS. 2, 3, and 4 are the absorption and fluorescence emission spectra of compounds C, D, and E in the absence and presence of DNA respectively in buffer solution respectively. […] Therefore, in confocal fluorescence image tests of compounds, the exited wavelength is selected 559 nm and the collected emission wavelength was 575-625 nm.

[3] = Photofading under iodine-tungsten lamp irradiation in Tris-HCl buffer; assay type: physicochemical; conditions: 5×10^−6 M in Tris-HCl 10 mM pH 7.4; 500 W iodine-tungsten lamp, 20 cm; after 6 h of radiation
Method: 5×10^−6M solutions of compounds C, D, E and reference compound M1 in Tris-HCl (10 mM, pH=7.4, same below) buffer were be sealed into the cuvettes respectively. To absorb short wavelength light (<400 nm), a trap of glass containing 50 g/L NaNO2 was set up between the cells and the lamp. In the other hand, NaNO2 solution can be used as a cold trap to keep the sample at room temperature. After the absorption of samples were monitored, solutions of the samples were irradiated with a 500 W iodine-tungsten lamp. The distance between the cells and the lamp was 20 cm. The irreversible bleaching of the dyes at the absorption peak was monitored as a function of time at 1 hour intervals. The equipment used is a UV-Vis spectrophotometer Lambda 8453.

MCF7 cells [4] = assay: Fluorescence imaging of live cells stained with dye; assay type: cell-based, human; conditions: 45 min, compound D 2 μM, M1 3 μM, confocal microscopy
Method: MCF7 cells (human breast adenocarcinoma cell line) were cultured in DEME medium supplemented with 10% fetal bovine serum at 37° C. in an atmosphere containing 5% CO2 for 24 h. For live cell imaging, compound D (2 μM) or reference compound M1 (3 μM) was added to cells for 45 min and washed with PBS (phosphate-buffered saline) three times. After replacement of the medium, cells were imaged using a confocal fluorescence microscope. […] The confocal laser scanning microscope is Olympus FV1000.

MCF7 cells [5] = assay: Colocalization fluorescence imaging with commercial nucleic acid stain SYTO9; assay type: cell-based, human; conditions: compound E 2.0 μM 45 min after SYTO9 3.0 μM 45 min; λex=559 nm, λem=575-625 nm
Method: The cells were cultured as shown example 10, were first cultured with 3.0 μM of available commercial nucleic acid stain SYTO9 for 45 min, and then washed with PBS three times. Cells were then incubated with compound E (2.0 μM) for 45 min, and then washed with PBS three times. After replacement of DEME medium, cells were imaged using confocal fluorescence microscope.
FIG. 6a is the fluorescence image of SYTO 9 (λex=488 nm, λem=500 nm to 550 nm) and FIG. 6b is the fluorescence image of compound E (λex=559 nm, λem=575 nm to 625 nm). […] The equipment used is an Olympus FV1000 confocal laser scanning microscope.

CT DNA [6] = conditions: methanol, 15° C.; cited from earlier work

| maximum absorption wavelength (CT DNA [2]) | maximum emission wavelength (CT DNA [2]) | Compound | cytotoxicity in high concentration relative to M1 (living cells) | cytotoxicity in low concentrations (living cells) | fluorescence quantum yield in the presence of DNA (CT DNA [1]) | optical density remaining after radiation (photostability) [3] [%] | staining pattern in live cells (MCF7 cells [4]) | subcellular regions stained (colocalization with SYTO9) (MCF7 cells [5]) | fluorescence quantum yield of standard (ΦF) (CT DNA [6]) |
| --- | --- | --- | --- | --- | --- | --- | --- | --- | --- |
| about 545 nm | about 610 nm | CN1/C(=C(C#N)\C=C\c2cc[n+](CCO)c3ccccc23)Sc2cc(Cl)ccc21.Cl [Compound D] | less cytotoxic than reference compound M1 | low cytotoxicity |  | 90 | clear nucleolar staining as well as faint nucleus staining |  |  |
| about 545 nm | about 610 nm | C=CCCN1/C(=C(C#N)\C=C\c2cc[n+](CC)c3cc(OC)ccc23)Sc2ccccc21.[I-] [Compound E] |  |  |  | 90 |  | nucleus and nucleolus |  |
|  |  | CC[n+]1ccc(/C=C/C=C2/Sc3ccccc3N2C)c2ccccc21.[I-] [Compound M1, reference compound] |  | low cytotoxicity | 0.16 | ~0 | clear nucleolar staining as well as faint nucleus staining |  |  |
|  |  | CCN(CC)c1ccc2c(-c3ccccc3C(=O)O)c3ccc(=[N+](CC)CC)cc-3oc2c1.[Cl-] [Rhodamine B] |  |  |  |  |  |  | 0.97 |

| Compound | maximum absorption wavelength (CT DNA [2]) | maximum emission wavelength (CT DNA [2]) | cytotoxicity in high concentration relative to M1 (living cells) | cytotoxicity in low concentrations (living cells) | fluorescence quantum yield in the presence of DNA (CT DNA [1]) | optical density remaining after radiation (photostability) [3] [%] | staining pattern in live cells (MCF7 cells [4]) | subcellular regions stained (colocalization with SYTO9) (MCF7 cells [5]) | fluorescence quantum yield of standard (ΦF) (CT DNA [6]) |
| --- | --- | --- | --- | --- | --- | --- | --- | --- | --- |
| CC[n+]1ccc(/C=C/C(C#N)=C2/Sc3ccccc3N2C)c2ccccc21.[I-] [Compound C] | about 545 nm | about 610 nm | less cytotoxic than reference compound M1 | low cytotoxicity | 0.73 | 90 |  |  |  |
